Experimental data from patent US20100152100A1, “ACCELERATED THERAPY” (Gloucester Pharmaceuticals, Inc., priority 2008, published 2010).

Tests used:
[1] = Accelerated romidepsin dosing, clinical trial experience (unit doses given intravenously over about one hour or less)
[2] = human, in vivo
[3] = Earlier clinical investigations of romidepsin: observed toxicities and deaths; settings: early development; out of more than 450 patients
[4] = patient five, (Breast Cancer), 8 mg/m^2
[5] = patient four, (Breast Cancer), 8 mg/m^2
[6] = patient two, (Multiple Myeloma), 10 mg/m^2
[7] = patient, (Multiple Myeloma), 8 mg/m^2

Structure (SMILES): C/C=C1\NC(=O)[C@H]2CSSCC/C=C/[C@H](CC(=O)N[C@H](C(C)C)C(=O)N2)OC(=O)[C@H](C(C)C)NC1=O [romidepsin, (1S,4S,10S,16E,21R)-7-[(2Z)-ethylidene]-4,21-diisopropyl-2-oxa-12,13-dithia-5,8,20,23-tetraazabicyclo[8.7.6]tricos-16-ene-3,6,9,19,22-pentanone]
- electrocardiogram findings, lab abnormalities, adverse events, and serious adverse events overall ([1]; 15 patients on accelerated dosing regimens): consistent with the results seen in prior clinical trials utilizing romidepsin
- Clinically Significant Lab Abnormalities [1, 4]: None
- Related SAEs [1, 4]: None
- ECG Findings (Machine Alerts) ([1]; patient five, (Breast Cancer), 8 mg/m^2, full wrapped cell: Nonspecific T wave changes, low QRS voltages, tachycardia, possible anterior infarction, left atrial abnormality): Nonspecific T wave
- Related Adverse Events ([1]; patient five, GPI-06-0005 (Breast Cancer), 8 mg/m^2 on Days 1, 8, and 15 of Cycle 2 and beyond, 6 accelerated doses, full wrapped cell: Fatigue, dysphagia, dizziness): Fatigue,
- Clinically Significant Lab Abnormalities [1, 5]: None
- Related SAEs [1, 5]: None
- ECG Findings (Machine Alerts) ([1]; patient four, (Breast Cancer), 8 mg/m^2, full wrapped cell: Left anterior fascicular block, low QRS voltages, nonspecific T wave changes, possible left ventricular hypertrophy, possible anterior infarction, tachycardia, sinus arrhythmia): Left anterior
- Related Adverse Events ([1]; patient four, GPI-06-0005 (Breast Cancer), 8 mg/m^2 on Days 1, 8, and 15 of Cycle 2 and beyond, 5 accelerated doses, full wrapped cell: Fatigue, vomiting, anemia, anorexia): Fatigue,
- Related SAEs ([1]; patient one, (Multiple Myeloma), 10 mg/m^2): None
- ECG Findings (Machine Alerts) ([1]; patient one, (Multiple Myeloma), 10 mg/m^2, full wrapped cell: Sinus tachycardia, nonspecific ST changes, low QRS voltages, junctional depression prior to baseline): Sinus tachycardia,
- Clinically Significant Lab Abnormalities ([1]; patient one, (Multiple Myeloma), 10 mg/m^2, full wrapped cell: Thrombocytopenia, anemia, neutropenia, increased serum creatinine, hyperpcalcemia): Thrombocytopenia,
- Related Adverse Events ([1]; patient one, GPI-08-0006 (Multiple Myeloma), 10 mg/m^2 on Days 1, 8, and 15 of Cycle 1 and beyond, 2 accelerated doses, full wrapped cell: Flushing, cold feeling, nausea, vomiting, back pain, canker sore, fatigue, UTI, hypokalemia, hypophosphatemia): Flushing,
- Related SAEs ([1]; patient three, (Multiple Myeloma), 10 mg/m^2): None
- ECG Findings (Machine Alerts) ([1]; patient three, (Multiple Myeloma), 10 mg/m^2, full wrapped cell: Nonspecific T waves changes possibly due to myocardial ischemia, results consistent with baseline ECGs): Nonspecific T waves
- Clinically Significant Lab Abnormalities ([1]; patient three, (Multiple Myeloma), 10 mg/m^2, full wrapped cell: Thrombocytopenia, anemia, neutropenia): Thrombocytopenia,
- Related Adverse Events ([1]; patient three, GPI-08-0006 (Multiple Myeloma), 10 mg/m^2 on Days 1, 8, and 15 of Cycle 1 and beyond, 13 accelerated doses, full wrapped cell: Nausea, vomiting, flushing, constipation, headache, body aches, abdominal pain, diarrhea, bloating, vein erythema): Nausea,
- QTC (ECG machine alert) [1, 6]: close to 450
- Related SAEs [1, 6]: None
- ECG Findings (Machine Alerts) ([1]; patient two, (Multiple Myeloma), 10 mg/m^2, full wrapped cell: T wave changes, conduction defect of right bundle branch block, low QRS spatial velocity, QTC close to 450): T wave changes,
- Clinically Significant Lab Abnormalities ([1]; patient two, (Multiple Myeloma), 10 mg/m^2, full wrapped cell: Thrombocytopenia, anemia, neutropenia, increased serum creatinine): Thrombocytopenia,
- Related Adverse Events ([1]; patient two, GPI-08-0006 (Multiple Myeloma), 10 mg/m^2 on Days 1, 8, and 15 of Cycle 1 and beyond, 2 accelerated doses, full wrapped cell: Knee pain, headache, skin crawling, cold feet, malaise, bowel urgency, nausea, vomiting): Knee pain,
- Adverse Events reported directly after infusion ([1]; patient, 78 kg, 26 mg on days 1, 8, and 15 of 28 day cycle, accelerated dose Day 15 of cycle 8, full wrapped cell: Nausea, vomiting and diarrhoea, heamaturia): Nausea,
- LAB ([1]; patient, 78 kg, 26 mg, accelerated dose Day 15 of cycle 8, full wrapped cell: Hypocalcaemia noted): Hypocalcaemia
- ECG ([1]; patient, 78 kg, 26 mg, accelerated dose Day 15 of cycle 8, full wrapped cell: Post infusion ECG - peaked T waves laterally and subtle ST depression laterally but otherwise normal ECG next day was normal): Post infusion
- Adverse Events reported directly after infusion ([1]; patient, 95.8 Kg, 30.5 mg on days 1, 8, and 15 of 28 day cycle, accelerated dose Day 1 of cycle 8): None
- lateral ST depression on post infusion ECG ([1]; patient, 95.8 Kg, 30.5 mg, accelerated dose Day 1 of cycle 8, asymptomatic): of 1 mm.
- LAB ([1]; patient, 95.8 Kg, 30.5 mg, accelerated dose Day 1 of cycle 8, full wrapped cell: No immediate effect but hypocalcaemia later): No immediate
- ECG ([1]; patient, 95.8 Kg, 30.5 mg, accelerated dose Day 1 of cycle 8, full wrapped cell: Post infusion ECG asymptomatic - showed some lateral ST depression of 1 mm. ECG 2 hours later showed improvement): Post infusion
- Related SAEs ([1]; patient, 103 Kg, (Multiple Myeloma), 10 mg/m^2): None
- ECG Findings (Machine Alerts) ([1]; patient, 103 Kg, (Multiple Myeloma), 10 mg/m^2, full wrapped cell: Nonspecific T wave changes, ST junctional depression): Nonspecific T wave
- Clinically Significant Lab Abnormalities ([1]; patient, 103 Kg, (Multiple Myeloma), 10 mg/m^2, full wrapped cell: Thrombocytopenia, anemia, neutropenia, hypoalbuminemia): Thrombocytopenia,
- Related Adverse Events ([1]; patient, 103 Kg, GPI-08-0006 (Multiple Myeloma), 10 mg/m^2 on Days 1, 8, and 15 of Cycle 1 and beyond, 4 accelerated doses, full wrapped cell: Nausea, thrombocytopenia, fatigue, vein erythema, vomiting): Nausea,
- Adverse Events reported directly after infusion ([1]; patient, 13 mg on days 1, 8, and 15 of 28 day cycle, accelerated dose Day 15 of cycle 2): None
- LAB ([1]; patient, 13 mg, accelerated dose Day 15 of cycle 2, full wrapped cell: No abnormalities): No
- ECG ([1]; patient, 13 mg, accelerated dose Day 15 of cycle 2, full wrapped cell: Post dose ECGs taken on same day and next day, no abnormalities notes): Post dose
- Related SAEs ([1]; patient, (Giant Cell), 12 mg/m^2): None
- Clinically Significant Lab Abnormalities ([1]; patient, (Melanoma), 8 mg/m^2): None
- Related SAEs ([1]; patient, (Melanoma), 8 mg/m^2): None
- ECG Findings (Machine Alerts) ([1]; patient, (Melanoma), 8 mg/m^2, full wrapped cell: Nonspecific T wave changes possibly due to myocardial ischemia, low QRS voltages, sinus tachycardia, possible inferior infarction): Nonspecific T wave
- Clinically Significant Lab Abnormalities [1, 7]: None
- Related SAEs [1, 7]: None
- ECG Findings (Machine Alerts) ([1]; patient, (Multiple Myeloma), 10 mg/m^2, full wrapped cell: T wave inversion, low QRS voltages, reversed R wave progression): T wave inversion,
- Clinically Significant Lab Abnormalities ([1]; patient, (Multiple Myeloma), 10 mg/m^2, full wrapped cell: Thrombocytopenia, anemia, neutropenia, hypoalbuminemia, hypokalemia): Thrombocytopenia,
- Related SAEs ([1]; patient, (Multiple Myeloma), 10 mg/m^2, full wrapped cell: Vomiting, headache, dehydration): Vomiting,
- Clinically Significant Lab Abnormalities ([1]; patient, (NHL), 8 mg/m^2): None
- Related SAEs ([1]; patient, (NHL), 8 mg/m^2): None
- ECG Findings (Machine Alerts) ([1]; patient, (NHL), 8 mg/m^2, full wrapped cell: Probable normal variant, borderline lateral T wave changes, low QRS voltages): Probable normal
- Related SAEs ([1]; patient, (Ovarian Cancer), 12 mg/m^2, full wrapped cell: Atrial fibrillation): Atrial
- Related Adverse Events ([1]; patient, GPI-06-0005 (Melanoma), 8 mg/m^2 on Days 1, 8, and 15 of Cycle 2 and beyond, 3 accelerated doses, full wrapped cell: Fatigue, vomiting): Fatigue,
- Related Adverse Events ([1]; patient, GPI-06-0005 (NHL), 8 mg/m^2 on Days 1, 8, and 15 of Cycle 2 and beyond, 3 accelerated doses): Fatigue
- ECG Findings (Machine Alerts) ([1]; patient, GPI-08-0006 (Multiple Myeloma), 8 mg/m^2 on Days 1, 8, and 15 of Cycle 1 and beyond, 4 accelerated doses): None
- Related Adverse Events ([1]; patient, GPI-08-0006 (Multiple Myeloma), 10 mg/m^2 on Days 1, 8, and 15 of Cycle 1 and beyond, 1 accelerated dose, full wrapped cell: Nausea, vomiting, headache, dehydration): Nausea,
- rate of serious adverse events vs unit doses administered over about 4 hours ([1]; unit doses over less than about one hour): without increasing the rate of serious adverse events
- serial serum troponin levels and multiple gated acquisition (MUGA) scans [2]: consistently normal
- severity of observed toxicities [2]: mild to moderate
- deaths during clinical investigations [3]: 6
